Test results: BindingDB's records for doi:10.1021/jm0203130 (Merck Research Laboratories, 2002)

Biological target: Integrin alpha-IIb/beta-3 (Homo sapiens, UniProt P08514+P05106)
Test: Inhibition of integrin alphaIIb-beta3 in platelet aggregation assay

Integrin alpha-IIb/beta-3, sequence (P05106 27-788 limits assumed): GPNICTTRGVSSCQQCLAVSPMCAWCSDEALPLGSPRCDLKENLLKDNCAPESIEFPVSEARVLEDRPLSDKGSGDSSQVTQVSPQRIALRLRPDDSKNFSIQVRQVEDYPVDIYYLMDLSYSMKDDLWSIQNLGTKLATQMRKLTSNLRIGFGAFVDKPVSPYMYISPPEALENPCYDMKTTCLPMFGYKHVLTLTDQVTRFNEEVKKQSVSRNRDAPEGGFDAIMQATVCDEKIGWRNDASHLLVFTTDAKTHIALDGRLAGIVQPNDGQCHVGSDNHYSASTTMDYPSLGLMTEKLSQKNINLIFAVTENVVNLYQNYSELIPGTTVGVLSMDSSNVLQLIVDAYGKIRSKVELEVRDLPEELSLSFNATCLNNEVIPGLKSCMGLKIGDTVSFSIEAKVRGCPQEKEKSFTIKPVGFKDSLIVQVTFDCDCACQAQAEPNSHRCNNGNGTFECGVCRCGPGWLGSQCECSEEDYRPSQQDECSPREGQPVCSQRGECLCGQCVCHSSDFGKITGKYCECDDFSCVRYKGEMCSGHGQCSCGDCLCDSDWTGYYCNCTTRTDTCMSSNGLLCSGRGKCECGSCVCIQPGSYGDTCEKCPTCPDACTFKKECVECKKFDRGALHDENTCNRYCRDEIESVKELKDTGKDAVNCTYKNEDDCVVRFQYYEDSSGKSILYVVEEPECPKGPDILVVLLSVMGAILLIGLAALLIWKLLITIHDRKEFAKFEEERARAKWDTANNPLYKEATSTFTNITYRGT
Integrin alpha-IIb/beta-3, sequence (P08514 32-887 limits assumed): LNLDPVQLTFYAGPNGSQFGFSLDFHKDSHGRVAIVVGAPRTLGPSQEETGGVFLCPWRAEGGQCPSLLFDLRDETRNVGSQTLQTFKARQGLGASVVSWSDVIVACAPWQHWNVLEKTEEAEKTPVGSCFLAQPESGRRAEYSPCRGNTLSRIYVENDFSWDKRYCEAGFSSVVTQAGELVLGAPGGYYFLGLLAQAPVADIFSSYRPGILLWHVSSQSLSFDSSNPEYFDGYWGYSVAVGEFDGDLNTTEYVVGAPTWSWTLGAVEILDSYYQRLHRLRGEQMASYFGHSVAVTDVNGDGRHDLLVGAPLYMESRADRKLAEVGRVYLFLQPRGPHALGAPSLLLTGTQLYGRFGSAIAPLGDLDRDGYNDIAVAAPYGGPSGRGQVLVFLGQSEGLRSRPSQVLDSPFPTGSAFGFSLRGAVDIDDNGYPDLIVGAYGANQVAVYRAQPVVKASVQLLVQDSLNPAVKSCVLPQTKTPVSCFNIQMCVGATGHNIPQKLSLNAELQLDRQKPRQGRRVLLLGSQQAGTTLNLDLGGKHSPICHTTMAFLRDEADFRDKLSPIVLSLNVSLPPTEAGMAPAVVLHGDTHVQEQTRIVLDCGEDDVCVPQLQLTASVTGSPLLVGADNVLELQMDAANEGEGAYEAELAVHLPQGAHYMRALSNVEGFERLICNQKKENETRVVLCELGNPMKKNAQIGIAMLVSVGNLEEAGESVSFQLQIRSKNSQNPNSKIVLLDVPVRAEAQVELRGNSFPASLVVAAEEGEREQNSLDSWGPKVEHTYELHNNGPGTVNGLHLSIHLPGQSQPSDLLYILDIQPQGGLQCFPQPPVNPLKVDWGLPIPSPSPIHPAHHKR
Integrin alpha-IIb/beta-3, sequence (P08514 891-1039 limits assumed): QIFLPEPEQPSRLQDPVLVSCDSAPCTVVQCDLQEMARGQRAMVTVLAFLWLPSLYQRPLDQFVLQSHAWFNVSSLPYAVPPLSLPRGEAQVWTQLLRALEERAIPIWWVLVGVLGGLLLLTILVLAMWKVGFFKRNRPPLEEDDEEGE

Structure (SMILES) | IC50
O=C(NC[C@H](NS(=O)(=O)c1ccccc1)C(=O)O)c1ccc(CCc2ccc3c(n2)NCCC3)cc1 [2-Benzenesulfonylamino-3-{4-[2-(5,6,7,8-tetrahydro-[1,8]naphthyridin-2-yl)-ethyl]-benzoylamino}-propionic acid] | 0.26 µM
O=C(O)C[C@H](NC(=O)CN1CCC(CCc2ccc3c(n2)NCCC3)C1=O)c1cccnc1 (some centres not stated) [3-(2-{2-Oxo-3-[2-(5,6,7,8-tetrahydro-[1,8]naphthyridin-2-yl)-ethyl]-pyrrolidin-1-yl}-acetylamino)-3-pyridin-3-yl-propionic acid] | > 10 µM
O=C(O)C[C@H](NC(=O)CN1CCC(CCc2ccc3c(n2)NCCC3)C1=O)c1cnc2ccccc2c1 (some centres not stated) [3-(2-{2-Oxo-3-[2-(5,6,7,8-tetrahydro-[1,8]naphthyridin-2-yl)-ethyl]-pyrrolidin-1-yl}-acetylamino)-3-quinolin-3-yl-propionic acid] | 0.776 µM
O=C(O)CCNC(=O)CNC(=O)CCCc1ccc2c(n1)NCCC2 [3-[2-(4-5,6,7,8-Tetrahydro-[1,8]naphthyridin-2-yl-butyrylamino)-acetylamino]-propionic acid] | > 10 µM

Next, values leading:

IC50 | Structure (SMILES)
1.6 µM | Nc1cccc(CCc2ccc(C(=O)NC[C@H](NS(=O)(=O)c3ccc(I)cc3)C(=O)O)cc2)n1 [3-{4-[2-(6-Amino-pyridin-2-yl)-ethyl]-benzoylamino}-2-(4-iodo-benzenesulfonylamino)-propionic acid]
> 10 µM | O=C(O)C[C@H](NC(=O)CNC(=O)CCCc1ccc2c(n1)NCCC2)c1cccnc1 [(S)-3-Pyridin-3-yl-3-[2-(4-5,6,7,8-tetrahydro-[1,8]naphthyridin-2-yl-butyrylamino)-acetylamino]-propionic acid]
> 10 µM | CNc1cccc(CCOc2ccc3c(c2)CN(CC(F)(F)F)C(=O)[C@H](CC(=O)O)C3)n1 [[(S)-8-[2-(6-Methylamino-pyridin-2-yl)-ethoxy]-3-oxo-2-(2,2,2-trifluoro-ethyl)-2,3,4,5-tetrahydro-1H-benzo[c]azepin-4-yl]-acetic acid]
